{"source": "patent US20240067639A1", "about": "“SMALL MOLECULES THAT TARGET THE RNA THAT CAUSES ALS” (EXPANSION THERAPEUTICS, INC., priority 2020, published 2024)", "key": {"[1]": {"tested_on": "cultured cells and induced neurons", "details": "cited from earlier work"}, "r(G4C2)^exp": {"tested_on": "r(G4C2)^exp", "details": "background statement; cited from earlier work"}, "[2]": {"target": "Biotin-labeled RNA (target RNA)", "test": "BLI affinity measurement (ForteBio Octet RED384)", "format": "binding", "details": "Table G"}, "[3]": {"tested_on": "RAN translation of (G4C2)66-No ATG-GFP in HEK293T cells", "test": "Cell-based assay of RAN translation inhibition (GFP/mCherry reporter)", "details": "Homo sapiens, HEK-293T, read-out: RANT IC50"}}, "note": "Like-named read-outs stand apart in the source and are kept apart here."}
{"smiles": "Cc1c2cc[n+](CCN3CCCCC3)cc2c(C)c2c1[nH]c1ccc(O)cc12", "note": "[Compound 1a]", "values": [{"measurement": "inhibition of RAN translation and foci formation", "setting": "[1]", "value": "inhibits RAN translation and foci formation"}, {"measurement": "binding to r(G4C2)exp", "setting": "r(G4C2)^exp", "value": "binds"}]}
{"smiles": "Cc1c2ccncc2cc2c3cc(Oc4cccnc4)ccc3n(C)c12", "note": "[Compound 311, 5,6-dimethyl-9-(pyridin-3-yloxy)-6H-pyrido[4,3-b]carbazole]", "values": [{"measurement": "Kd", "setting": "[2]", "value": 2.3, "unit": "µM"}, {"measurement": "IC50", "setting": "[3]", "value": 20, "unit": "µM"}]}
{"smiles": "Cc1c2ccncc2cc2c3ccccc3n(CCN(C)C)c12", "note": "[Compound 312, N,N-dimethyl-2-(5-methyl-6H-pyrido[4,3-b]carbazol-6-yl)ethanamine]", "values": [{"measurement": "Kd", "setting": "[2]", "value": 1.3, "unit": "µM"}, {"measurement": "IC50", "setting": "[3]", "value": 7.4, "unit": "µM"}]}
{"smiles": "Cc1c2ccnc(C(=O)NCCN(C)C)c2cc2c3cc(F)c(F)cc3n(C)c12", "note": "[Compound 313, N-(2-(dimethylamino)ethyl)-8,9-difluoro-5,6-dimethyl-6H-pyrido[4,3-b]carbazole-1-carboxamide]", "values": [{"measurement": "Kd", "setting": "[2]", "value": 4.7, "unit": "µM"}, {"measurement": "IC50", "setting": "[3]; Table G, HEK293T", "value": "> 100", "unit": "µM"}]}
{"smiles": "Cc1c2ccncc2cc2c3cc(Oc4ccc(N)nc4)ccc3n(C)c12", "note": "[Compound 314, 5-((5,6-dimethyl-6H-pyrido[4,3-b]carbazol-9-yl)oxy)pyridine-2-amine]", "values": [{"measurement": "Kd", "setting": "[2]", "value": 3, "unit": "µM"}, {"measurement": "IC50", "setting": "[3]; Table G, HEK293T", "value": "> 60", "unit": "µM"}]}
{"smiles": "Cc1c2ccnc(C(=O)NCCN(C)C)c2cc2c3cc(F)ccc3n(C)c12", "note": "[Compound 315, N-(2-(dimethylamino)ethyl)-9-fluoro-5,6-dimethyl-6H-pyrido[4,3-b]carbazole-1-carboxamide]", "values": [{"measurement": "Kd", "setting": "[2]", "value": 11, "unit": "µM"}, {"measurement": "IC50", "setting": "[3]; Table G, HEK293T", "value": "> 100", "unit": "µM"}]}
{"smiles": "COc1ccc2c(c1)c1cc3cnccc3c(C)c1n2CCN1CCCCC1", "note": "[Compound 316, 9-methoxy-5-methyl-6-(2-(piperidin-1-yl)ethyl)-6H-pyrido[4,3-b]carbazole]", "values": [{"measurement": "Kd", "setting": "[2]", "value": 3.4, "unit": "µM"}, {"measurement": "IC50", "setting": "[3]", "value": 10, "unit": "µM"}]}
{"smiles": "Cc1c2ccncc2cc2c3ccccc3n(CC3=NCCN3)c12", "note": "[Compound 317, 6-((4,5-dihydro-1H-imidazol-2-yl)methyl)-5-methyl-6H-pyrido[4,3-b]carbazole]", "values": [{"measurement": "Kd", "setting": "[2]", "value": 5, "unit": "µM"}, {"measurement": "IC50", "setting": "[3]; Table G, HEK293T", "value": 5, "unit": "µM"}]}
{"smiles": "Cc1c2ccncc2cc2c3ccccc3n(CCN3CCCCC3)c12", "note": "[Compound 318, 5-methyl-6-(2-(piperidin-1-yl)ethyl)-6H-pyrido[4,3-b]carbazole]", "values": [{"measurement": "Kd", "setting": "[2]", "value": 6, "unit": "µM"}, {"measurement": "IC50", "setting": "[3]", "value": 16, "unit": "µM"}]}
{"smiles": "Cc1c2ccncc2cc2c3ccccc3n(CCN3CCOCC3)c12", "note": "[Compound 319, 4-(2-(5-methyl-6H-pyrido[4,3-b]carbazol-6-yl)ethyl)morpholine]", "values": [{"measurement": "Kd", "setting": "[2]", "value": 7.8, "unit": "µM"}, {"measurement": "IC50", "setting": "[3]", "value": 12, "unit": "µM"}]}
{"smiles": "COc1ccc2c(c1)c1cc3cnccc3c(C)c1n2CCN1CCOCC1", "note": "[Compound 320, 4-(2-(9-methoxy-5-methyl-6H-pyrido[4,3-b]carbazol-6-yl)ethyl)morpholine]", "values": [{"measurement": "Kd", "setting": "[2]", "value": 100, "unit": "µM"}, {"measurement": "IC50", "setting": "[3]", "value": 1.9, "unit": "µM"}]}
{"smiles": "CNCCOc1ccc2c(c1)c1cc3cnccc3c(C)c1n2C", "note": "[Compound 321, 2-((5,6-dimethyl-6H-pyrido[4,3-b]carbazol-9-yl)oxy)-N-methylethanamine]", "values": [{"measurement": "Kd", "setting": "[2]", "value": 0.71, "unit": "µM"}, {"measurement": "IC50", "setting": "[3]; Table G, HEK293T", "value": 3.5, "unit": "µM"}]}
